Experimental data reported in patent US20070212331A1, “Methods and compositions for selectively killing cells” (priority 2006, published 2007).
“Also recorded” adds a separate entry of the source. Like-named read-outs stand apart in the source and are kept apart here. Where a SMILES comes first, the peptide text is derived from it. The star is where a group is joined. Cbz = O=C(OCc1ccccc1)*; CH2F = FC*

What was measured:
PC12 cells = experiment: Zinc-induced cell death of PC12 cells; assay type: cell-based; parameters: cell lysis (indicative of necrosis) of PC12 cells: dose or concentration left out as unconfirmed; details: for effect on cell viability: high (mM) concentrations
[1] = tested on: IIC9 cells (embryonic fibroblasts); experiment: IIC9 cell death by trypan blue uptake; assay type: cell-based; details: for effect on cell viability: high (mM) concentrations; for attenuation of zinc-induced cell death: Z-VAD preincubation; for cell death: 6 h (FIG. 1A)
[2] = tested on: IIC9 cells (embryonic fibroblasts); experiment: IIC9 cell morphology, microscopic examination; assay type: cell-based
Experimental: FIG. 1 depicts zinc-induced cell death in a time and dose dependent manner. (A) IIC9 cells (embryonic fibroblasts) were serum starved for 2 days and treated with the indicated concentrations of zinc for the indicated time periods. Cell death was monitored by trypan blue exclusion as described in the Materials and Methods. (B-D) Zinc-induced cell death is accompanied by morphological changes associated with apoptosis and necrosis. Shown are cells that were incubated with either 50 μM (C) or 200 μM (D) zinc for 6 hours. Control cells (B) were untreated. Cells were examined microscopically for changes in cell shape and size. […] Cell debris, indicative of cell lysis, was evident.
Cells and Incubation Conditions: IIC9 cells were grown in DMEM containing 10% FCS, P/S. Cells were plated in 12-well plates and grown to approximately 70% confluency. At that time, cells were serum arrested by changing the medium to DMEM (low glucose) without FCS. After 48 hours, cells were treated with zinc as described in the text. Cell death was quantified by trypan blue uptake. Cells were incubated with trypan blue (0.04%) for 5 min. Cells were examined microscopically and the number of blue cells and total cells were counted. Four fields were examined for each condition, with a minimum of 100 cells/field. To examine the effects of selective inhibitors, cells were preincubated with the indicated compound for 30 min. prior to zinc treatment.

ERK1/2 = ERK1/2 activation in IIC9 cells, Western blot with anti-pERK antibody; assay type: cell-based; parameters: time until ERK activation is detected after zinc addition / time ERK activation remains elevated: dose or concentration left out as unconfirmed; details: for effect of inhibitor on ERK activation by zinc: IIC9 cells preincubated with inhibitor
Experimental: (§1) Assays: ERK1/2 activation was determined by harvesting cells directly in boiling SDS-PAGE sample buffer and probing corresponding Western Blots with anti-pERK antibody (Cell Signaling). Blots were stripped and reprobed for total ERK (Cell Signaling). Ras activation was determined using the Raf-RBD assay (21,24). Identification of the specific Ras isoform activated was determined by probing the western blot with isoform-specific antibody (Upstate Biotechnology). Transfection of IIC9 cells was carried out using Novafector. Transfection efficiency of these cells is approximately 90%. The constructs for expression of dn-Ras and Bcl-Xl were kindly provided by Dr. J. Corbett and Dr. Chinnaduri (SLU).

ERK = ERK activation (pERK) in PC12 cells; assay type: cell-based
Ras = Ras activation in IIC9 cells, Raf-RBD pull-down assay; assay type: cell-based; details: for Ras isoform activated: isoform-specific antibody
Experimental: as §1
Because Ras is a common upstream activator of ERK1/2 (36), we reasoned that zinc may induce the phosphorylation of ERK1/2 via Ras. This was examined by incubating IIC9 cells with 100 uM zinc and assessing Ras activation by RBD pull-down of GTP-Ras followed by Western blot analysis with a pan-Ras antibody. […] The critical role of Ras in mediating the effects of zinc was confirmed by examining the effect of over-expression of dnRas. […] Consistent with Ras as the upstream activator of the cytotoxic effect of zinc on IIC9, expression of dn H-Ras also attenuates zinc-mediated cell death (FIG. 5B).

[3] = tested on: N18TG2 (neuroblastoma) cells; experiment: Zinc-induced death of N18TG2 (neuroblastoma) cells; assay type: cell-based; details: 24 h incubation
Experimental: Exemplary cell types were treated in vitro with varying amounts of zinc (zinc chloride or zinc sulfate), in the presence or absence of the zinc ionophore pyrithione. […] Cell death involves both apoptosis and necrosis as determined by morphological observation.

[4] = tested on: PC3 cells (prostate cancer cell line); experiment: Killing of PC3 cells by zinc and zinc-containing liposomes; assay type: cell-based; details: PC3 cells in culture (FIG. 6)
Experimental: These cells express high levels of the transferrin receptor and can be targeted by covalently attaching transferrin to the formed liposomes.
We next tested the ability of these liposomes to kill PC3 cells in culture (FIG. 6).
Non-prophetically, zinc containing liposomes were prepared by injecting ethanolic solutions of lipids into 10 mM Hepes buffer pH 6 containing 2.5 M ZnCl2. To make the ethanolic lipid solution, lipids initially dissolved in chloroform were dried by passing gaseous nitrogen over the solution. The dried lipids were dissolved in ethanol at a concentration of […] of phospholipids per mL of alcohol. The alcoholic lipid solution containing dioleoyl phosphatidyly choline, 1,2 dioleoyl phosphatidyly ethanolamine, 1,2 dioleolyl phosphatidyletanolamine-N-4-(p-maleimido-phenyl)butyramide) and cholesterol in a ratio of 7:2:0.05:1 was slowly (0.5 ml/min) injected through a Hamilton syringe into 3 mL of a magnetically stirred Hepes buffer, containing 2.5 mM ZnCl2 The final concentration of ethanol was between 2.5-7.5%. During injection of the lipids, the solution was constantly stirred by a standard magnetic stirrer. To ensure that the temperature of the liposome solution was well above the phase transition of the lipids, the temperature was kept at […]. […]

[5] = tested on: CD4+ CD8+ alpha beta TCR10CD3(10) thymocytes; details: 80-200 μM zinc; cited from earlier work
RAW (macrophage) cells = experiment: Zinc-induced death of RAW (macrophage) cells; assay type: cell-based
Experimental: Exemplary cell types were treated in vitro with varying amounts of zinc (zinc chloride or zinc sulfate), in the presence or absence of the zinc ionophore pyrithione.

[6] = PC12 cells, same range of concentrations as zinc
[7] = IIC9 cells, same range of concentrations as zinc

For `[Li]` [Li], the “effect on cell viability” value (PC12 cells; PC12 cells) was “no effect on cell viability” and the “effect on cell viability” value ([1]; IIC9 cells) was “no effect on cell viability”.

For `N#CC(=C(/N)Sc1ccccc1N)/C(C#N)=C(\N)Sc1ccccc1N` [U0126], the “effect on morphological changes induced by zinc” value ([2]; cells preincubated with inhibitor, 50 μM zinc (FIG. 2B-D)) was “limited; also recorded: prevented the morphological changes”, the “effect of inhibitor on ERK activation by zinc” value (“effect of inhibitor” below) (ERK1/2) was “significantly reduces ERK activation; also recorded: significantly reduced” and the “effect of preincubation on zinc-induced cell death” value (PC12 cells) was “greatly attenuated”. The “cell death in cells pretreated with inhibitor” value [1] was “Little or no death”, the “effect of preincubation with inhibitor on zinc-mediated cell death” value [1] was “inhibits zinc-induced cell death” and the “effect of preincubation on zinc-induced ERK activation” value (ERK; PC12 cells preincubated with inhibitor) was “attenuated that activation”.

With `CC(NC(=O)C(NC(=O)OCc1ccccc1)C(C)C)C(=O)NC(CC(=O)O)C(=O)CF` (stereo not drawn) [Z-VAD] (Cbz-Val-Ala-Asp-CH2F; configuration not given here) the “cell death in cells pretreated with Z-VAD” value ([1]; 50 μM zinc, first 6 hours of zinc treatment) was “little cell death”, the “attenuation of zinc-induced cell death” value ([1]; 50 μM zinc, 21 h) was 50% and the “attenuation of zinc-induced cell death” value ([1]; 100 μM zinc, 21 h) was “limited attenuation”. For the same compound, the “attenuation of zinc-induced cell death” value ([1]; 100 μM zinc, first 6 hours) was “approximately 50%” and the “effect of Z-VAD on zinc-mediated cell death” value ([1]; early hours (3-6), indicated zinc concentrations (FIG. 3A)) was “greatly attenuated death”.

In the case of `[Cl][Ni][Cl]` [NiCl2], the “cell death (apoptosis or necrosis) by metal salts” value (shortened to “cell death (apoptosis or necrosis)”) (PC12 cells; [6]) is reported as “No cell death” and the “cell death by metal salts” value [1, 7] is reported as “does not result in the cell death”.

In the case of `[Cl-].[Cl-].[Co+2]` [CoCl2], the “cell death (apoptosis or necrosis)” value (PC12 cells) is reported as “No cell death” and the “cell death by metal salts” value [1] is reported as “does not result in the cell death”.

With `[Ca]` [Ca] the “effect on cell viability” value (PC12 cells; PC12 cells) was “no effect on cell viability” and the “effect on cell viability” value ([1]; IIC9 cells) was “no effect on cell viability”.

With `COc1cc2ncnc(Nc3cccc(Br)c3)c2cc1OC` [PD153035] the “effect of inhibitor” value (ERK1/2) was “does not alter ERK activation”.

For `O=S(=O)([O-])[O-].[Cu+2]` [CuSO4], the “cell death (apoptosis or necrosis)” value (PC12 cells; [6]) was “No cell death” and the “cell death by metal salts” value [1, 7] was “does not result in the cell death”.

For `[Mg]` [Mg], the “effect on cell viability” value (PC12 cells; PC12 cells) was “no effect on cell viability” and the “effect on cell viability” value ([1]; IIC9 cells) was “no effect on cell viability”.

In the case of `C[S+]([O-])c1ccc(-c2nc(-c3ccncc3)c(-c3ccc(F)cc3)[nH]2)cc1` (stereo not shown) [SB203580], the “effect of preincubation with inhibitor on zinc-mediated cell death” value ([1]; 30 min preincubation, then 50 μM zinc (FIG. 2A)) is reported as “does not affect zinc-mediated cell death”.

For `[Cd]` [Cd], the “cell death (apoptosis or necrosis)” value (PC12 cells; [6]) was “did result in cell death”.

With thrombin the “activation of Ras” value (Ras; IIC9 cells stimulated with thrombin, previous finding of the inventors) was 3- to 5 fold and the Ras isoform activated (Ras; IIC9 cells) was “rapid activation of N-Ras, followed by a sustained activation of K-Ras”.

In the case of `[Mn]` [Mn], the “effect on cell viability” value (PC12 cells; PC12 cells) is reported as “no effect on cell viability” and the “effect on cell viability” value ([1]; IIC9 cells) is reported as “no effect on cell viability”.

For `[Cl-].[Cl-].[Zn+2]` [zinc], the cell morphology ([2]; 50 μM zinc, 6 hours (FIG. 1C)) was “rounded and displayed differing degrees of cell shrinkage”, the “cell population displaying a rounded morphology” value ([2]; 50 μM zinc, first few hours of incubation) was “approximately 50%” and the cell morphology ([2]; 200 μM zinc, 6 hours (FIG. 1D)) was “more varied morphology”. For the same compound, the cell morphology ([2]; 100 or 200 uM zinc, first few hours) was “all cells were rounded and underwent differing degrees of cell shrinkage”, the “% death” value ([3]; 25 μM zinc) was 19% and the “% death” value ([3]; 50 μM zinc) was 75%. For the same compound, the “% death” value ([3]; 75 μM zinc) was 84%, the “% death” value ([3]; 150 μM zinc) was 90% and the “cell death of PC3 cells” value [4] was “underwent cell death”. The “induction of pERK” value (ERK1/2; IIC9 cells, western blotting with pERK antibody (FIG. 2E)) was “does induce pERK”, the “time until ERK activation is detected after zinc addition” value (ERK1/2; IIC9 cells, zinc) was no more than 5 min and the “time ERK activation remains elevated” value (ERK1/2; IIC9 cells, zinc, longest time period examined) was “at least 6 h”. For the same compound, the “cell lysis (indicative of necrosis) of PC12 cells” value (PC12 cells; higher zinc concentrations or longer time periods) was “significant cell lysis”, the “cell death of PC12 cells” value (PC12 cells; undifferentiated or differentiated PC12 cells, in vitro) was “time and dose-dependent cell death” and the “activation of Ras” value (Ras; IIC9 cells, 100 uM zinc, pan-Ras antibody (FIG. 5A)) was roughly 5 fold. For the same compound, the Ras isoform activated (Ras; IIC9 cells) was “selective activation of H-Ras”, the “death of the population” value ([1]; 50 μM zinc, 6-h incubation, experiment of FIG. 2A) was “approximately 25%” and the cell death ([1]; 50 μM zinc) was roughly 15%. For the same compound, the cell death ([1]; 100 μM zinc) was roughly 25%, the cell death ([1]; 200 μM zinc) was “approximately 45%” and the “extracellular zinc concentration necessary to induce the death pathway” value ([1]; IIC9 cells, in the absence of pyrithione) was no less than 50 µM. The “cell death of IIC9 cells” value ([1]; addition of zinc) was “time- and concentration-dependent”, the “cell death during the first few hours” value ([1]; zinc concentrations as high as 200 μM, first few hours) was “Little or no death” and the “time until pERK could be detected” value (ERK; PC12 cells, after zinc treatment) was “within five minutes”. The “time pERK remained at that level” value (ERK; PC12 cells, longest time period examined) was “at least five hours”, the ERK activation (ERK; zinc treatment of PC12 cells) was “induced ERK activation” and the “thymocytes in which apoptosis was induced” value [5] was 40%. For the same compound, the “% cell death” value (RAW (macrophage) cells; 25 μM zinc, 0.0 hours of incubation) was 0.0%, the “% cell death” value (RAW (macrophage) cells; 25 μM zinc, 1.0 hours of incubation) was 0.0% and the “% cell death” value (RAW (macrophage) cells; 25 μM zinc, 3.0 hours of incubation) was 0.0%. The “% cell death” value (RAW (macrophage) cells; 25 μM zinc, 5.0 hours of incubation) was 0.0%, the “% cell death” value (RAW (macrophage) cells; 50 μM zinc, 5.0 hours of incubation) was 0.0% and the “% cell death” value (RAW (macrophage) cells; 50 μM zinc, 18.0 hours of incubation) was 20.0%. For the same compound, the “% cell death” value (RAW (macrophage) cells; 100 μM zinc, 18.0 hours of incubation) was 100.0%.

In the case of `O=S(=O)([O-])[O-].[Zn+2]` [ZnSO4], the “cell death (apoptosis or necrosis)” value (PC12 cells; [6]) is reported as “equally effective as ZnCl2” and the “cell death by metal salts” value [1, 7] is reported as “equally effective as ZnCl2”.

With `CC(C)(C)n1nc(-c2ccc(Cl)cc2)c2c(N)ncnc21` [PP2] the “effect of inhibitor” value (ERK1/2) was “does not inhibit zinc activation of ERK1/2”.
